Experimental data: patent US7264808B2, “Synthetic peptide for neurological disorders” (priority 2000, dated 2007)

B1: V-NGF (protein)
chain: EDHPVHNLGEHSVCDSVSAWVTKTTATDIKGNTVTVMENVNLDNKVYKEYFFETKCKNPNPEPSGCRGIDSSHWNSYCTETDTFIKALTMEGNQASWRFIRIETACVCVITKKKGN

Columns and labels:
NGF, NT-3 and bFGF = details: animals; brain areas associated with memory loss; cited from earlier work
[1] = cited from earlier work
PC12 cells [2] = assay: Neurite outgrowth on PC12 cells; assay type: cell-based, rat; details: for Neurites on PC12: concentration producing neurite outgrowth, read after 72 hours
Method: The trypsin digested fragments in various concentrations were tested for neurite out growth on PC12 cells. Tissue culture plate having 24 wells were seeded with 10^5 PC12 cells in serum free Dulbeco Modified Eagle's medium (DMEM). The results were read after 72 hours for neurite outgrowth. The fraction showing the most neurite outgrowth at the lowest concentration was sequenced for its amino acids composition. Sequencing was contracted out to the Protein Core Laboratory of Baylor College of Medicine, Houston, Tex.

Anti-V-NGF = assay: ELISA titer of specimens with Anti-V-NGF; assay type: binding; details: in comparison to Anti-H-NGF
Method: (§1) Enzyme-Linked Immunosorbent Assay (ELISA): The binding affinity of Anti-ADESH made against ADESH consisting of ten amino acids (AD-10), to various specimens known to contain NGF, such as venoms, body fluids, saliva, serum, urine etc. was studied by ELISA. The ELISA binding of Anti-AD-10 was compared to Anti-NGF made against cobra venom. ELISA tests were performed in 96 well microtiter plate. The wells of the plate were coated with one concentration of antigen, diluted in PBS each well receiving 100 μL. The plate was incubated at room temperature (RT) for 16 to 18 hours after which it was three times (3×) with PBS. The wells of the plate were blocked with 0.25 ml/well of 3% Teleostean gelatin from cold water fish (Sigma) for ½ hour at RT. Anti-AD-10 and Anti-NGFs were diluted threefold in gelatin were added to the appropriate wells of ELISA plate, including positive and negative controls. The plate was incubated at 37° C. for 1 to 1.5 hours. After washing 3X times horseradish peroxidase conjugated with IgG made in goat (Sigma) was added and incubated for 1 hour. Finally, the plate was washed and reacted with O-Phenylenediamine Dihydrochloride (OPD) for color development. The test was after ½ hour for ELISA titers.

Anti-AD-10 = assay: ELISA titer of specimens with Anti-AD-10; assay type: binding, mice; details: for ELISA titer Anti-AD-10: Table II, specimen coated
Method: Adult Balb/C mice were used for immunization. The mice were used in compliance with the US Public Health Service Policy on humane care and use of animals. First injection consisted of the mixture 100 μg of each version of ADESH in 0.1 ml mixed with equal volume of Freund's complete adjuvant/mouse. The subsequent injections consisted of the mixture 100 μg of ADESH and equal volume of incomplete Freund's adjuvant/mouse. The mice were injected intramuscularly (IM) six times two weeks apart. At the end of the immunization the mice were bled through the ophthalmic veins and serum was separated.
as §1

PC12 cells [3] = assay: Toxicity to PC12 cells; assay type: cell-based, rat; details: toxic concentration on PC12 cells

| Molecule | neurite outgrowth on PC12 cells (in words) (PC12 cells [2]) | ELISA titer Anti-AD-10 (Anti-AD-10) | Toxicity to PC12 (PC12 cells [3]) [µg] | Neurites on PC12 (PC12 cells [2]) [µg] | further results |
| --- | --- | --- | --- | --- | --- |
| O=C(CCn1cnc2c(=O)[nH]cnc21)Nc1ccc(C(=O)[O-])cc1.[K+] [AIT-082] | – | – | – | – | activation of genes producing neurotrophic factors in brain (NGF, NT-3 and bFGF): activate multiple genes in animals to produce three different neurotrophic factors; absorption and activity after oral administration [1]: rapidly absorbed and active after oral administration |
| ADESH: name of the inventive peptides; in b30 the synthetic ADESH consisting of ten amino acids (AD-10) (NLGEHPVCDS) | equally active as the fragment of the native NGF | – | – | – | reaction with Anti-V-NGF (in words) (Anti-V-NGF): react poorly |
| H-NGF saliva: NGF of human origin isolated from saliva | – | 2700 | – | – | – |
| H-NGF serum: NGF of human origin isolated from serum | – | 2700 | – | – | – |
| H-NGF urine: NGF of human origin isolated from urine | – | 2700 | – | – | – |
| N L G E H (NLGEH; SYNTHESIZED. CORRESPONDS TO FRAGMENT 7-11 OF SEQ. ID. NO. 1.) [AD-5, ID; NO: 4, first five amino acids] | biologically active in producing neurite outgrowth | 600 | >100 | 2 | – |
| N L G E H P V C D S (NLGEHPVCDS; SYNTHESIZED. SIMILAR TO FRAGMENT 7-16 OF SEQ. ID. NO. 1.) [AD-10] | biologically active in producing neurite outgrowth | 2700 | >100 | 1 | – |
| N L G E H P V C D S T D T W V (NLGEHPVCDSTDTWV; SYNTHESIZED. SIMILAR TO FRAGMENT 7-21 OF SEQ ID NO 1 ABOVE.) [AD-15, ID; NO: 2, first fifteen amino acids] | biologically active in producing neurite outgrowth | 1800 | >100 | 1 | – |
| B1 | – | 900 | 5 | 0.005 | reaction with Anti-AD-10 / Anti-ADESH (in words) (Anti-AD-10): react |
